Each structure is given as a SMILES string.

Among the data in patent publication US20260137819A1 (Radionetics Oncology, Inc., priority 2022, published 2026) are EC50 values, retold here.

For the first experiment, the target named is T1, human follicle-stimulating hormone receptor (FSHR) (Homo sapiens, UniProt P23945).
T1 construct: host or cells: CHO-K1
T1 sequence (P23945 18-695): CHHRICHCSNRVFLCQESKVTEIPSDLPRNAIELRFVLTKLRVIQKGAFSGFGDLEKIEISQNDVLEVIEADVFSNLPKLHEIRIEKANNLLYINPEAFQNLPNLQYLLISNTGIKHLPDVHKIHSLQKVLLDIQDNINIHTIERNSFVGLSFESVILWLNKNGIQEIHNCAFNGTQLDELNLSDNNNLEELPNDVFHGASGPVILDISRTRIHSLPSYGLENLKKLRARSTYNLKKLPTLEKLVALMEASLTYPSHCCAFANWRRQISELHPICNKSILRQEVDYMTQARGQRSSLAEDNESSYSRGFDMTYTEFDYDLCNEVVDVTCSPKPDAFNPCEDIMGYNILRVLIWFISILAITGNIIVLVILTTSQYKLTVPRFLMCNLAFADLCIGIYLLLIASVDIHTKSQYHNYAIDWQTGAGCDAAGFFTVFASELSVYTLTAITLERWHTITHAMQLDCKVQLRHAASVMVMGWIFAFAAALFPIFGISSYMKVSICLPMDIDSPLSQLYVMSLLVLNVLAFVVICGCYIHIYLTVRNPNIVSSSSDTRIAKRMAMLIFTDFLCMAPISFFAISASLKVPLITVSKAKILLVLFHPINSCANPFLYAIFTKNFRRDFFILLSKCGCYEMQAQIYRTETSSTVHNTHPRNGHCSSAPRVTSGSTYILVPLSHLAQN
The experiment in a line: Measurement of agonist cAMP production by activation of human FSHR. It is filed as cell-based. The following applies: CHO-K1 human FSHR cells, 30 minutes at 37° C., HTRF cAMP kit; read-out: hFSHR Agonist cAMP EC50. Here is the method: Measurement of agonist cAMP production by activation of human FSHR
Two days prior to the assay, 5,000 CHO—K1 human FSHR cells (Eurofins #95-0119C2) stably expressing the functional human follicle-stimulating hormone receptor were plated in a 96-well tissue culture-treated plate in growth media supplemented with the appropriate selection agent. […] The cells were incubated for 30 minutes at 37° C. (the final concentrations of the compound ranged from 0-10,000 nM). After the 30-minute incubation at 37° C., lysis buffer (HRTF CAMP kit, Cisbio #62AM5PEB)w as added directly to the cells and incubated for 30-minutes at room temperature. The diluted lysate was transferred and CAMP detection and visualization antibodies (HRTF CAMP kit, Cisbio #62AM5PEB) were added and incubated for 1-24 hours at room temperature. The time-resolved fluorescent signal was read with a Tecan M1000Pro (Tecan) multiplate reader. The intracellular cAMP concentrations were calculated by regression to a standard curve and were plotted vs. the concentration of the agonists. The concentration of test compound or FSH required to generate a half maximal response EC50 were calculated using standard curve-fitting methods. All data manipulations were performed using GraphPad Prism v9.3.1 (GraphPad, San Diego, CA).
One may read the EC50 as the concentration at which the effect is half-maximal. On to `COc1cc2c(cc1-c1cccc(NC(=O)NCCNC(=O)CCOCCNC(=O)CN3CCN(CC(=O)O)CCN(CC(=O)O)CCN(CC(=O)O)CC3)c1)-c1c(c(C(=O)N3CCOCC3(C)C)nn1-c1cc(Cl)cc(Cl)c1)CO2` [Compound 10, 2,2′,2″-(10-(1-((3-(1-(3,5-dichlorophenyl)-3-(3,3-dimethylmorpholine-4-carbonyl)-7-methoxy-1,4-dihydrochromeno[4,3-c]pyrazol-8-yl)phenyl)amino)-1,6,13-trioxo-9-oxa-2,5,12-triazatetradecan-14-yl)-1,4,7,10-tetraazacyclododecane-1,4,7-triyl)triacetic acid], for which the EC50 was < 10 nM.

Regarding `COc1cc2c(cc1-c1cccc(NC(=O)C[C@@H](N)C(=O)NC3CCN(C(=O)CN4CCN(CC(=O)O)CCN(CC(=O)O)CCN(CC(=O)O)CC4)CC3)c1)-c1c(c(C(=O)N3CCOCC3(C)C)nn1-c1cc(Cl)cc(Cl)c1)CO2` [Compound 12, (R)-2,2′,2″-(10-(2-(4-(2-amino-4-((3-(1-(3,5-dichlorophenyl)-3-(3,3-dimethylmorpholine-4-carbonyl)-7-methoxy-1,4-dihydrochromeno|4,3-clpyrazol-8-yl)phenyl)amino)-4-oxobutanamido)piperidin-1-yl)-2-oxoethyl)-1,4,7,10-tetraazacyclododecane-1,4,7-triyl)triacetic acid], the concentration for a half-maximal effect (EC50) fell in the range of 10 to 100 nM.

In the case of `COc1cc2c(cc1-c1cccc(NC(=O)CCOCCOCCOCCN(CCOCCOCCOCCNC(=O)CN3CCN(CC(=O)O)CCN(CC(=O)O)CCN(CC(=O)O)CC3)CCOCCOCCOCCNC(=O)CN3CCN(CC(=O)O)CCN(CC(=O)O)CCN(CC(=O)O)CC3)c1)-c1c(c(C(=O)N3CCOCC3(C)C)nn1-c1cc(Cl)cc(Cl)c1)CO2` [Compound 13], the EC50 fell in the range of 10 to 100 nM.

Regarding `COc1cc2c(cc1-c1cccc(NC(=O)NCCNC(=O)C[C@H](O)C[C@H](O)CCNC(=O)CN3CCN(CC(=O)O)CCN(CC(=O)O)CCN(CC(=O)O)CC3)c1)-c1c(c(C(=O)N3CCOCC3(C)C)nn1-c1cc(Cl)cc(Cl)c1)CO2` [Compound 14, 2,2′,2″-(10-(2-(((3R,5R)-7-((2-(3-(3-(1-(3,5-dichlorophenyl)-3-(3,3-dimethylmorpholine-4-carbonyl)-7-methoxy-1,4-dihydrochromeno[4,3-c]pyrazol-8-yl)phenyl)ureido)ethyl)amino)-3,5-dihydroxy-7-oxoheptyl)amino)-2-oxoethyl)-1,4,7,10-tetraazacyclododecane-1,4,7-triyl)triacetic acid], the EC50 was < 10 nM.

For the compound `COc1cc2c(cc1-c1cccc(NC(=O)CCC(=O)N(CCOCCOCCC(=O)O)C3CCN(C(=O)CN4CCN(CC(=O)O)CCN(CC(=O)O)CCN(CC(=O)O)CC4)CC3)c1)-c1c(c(C(=O)N3CCOCC3(C)C)nn1-c1cc(Cl)cc(Cl)c1)CO2` [Compound 15, 2,2′,2″-(10-(2-(4-(N-(2-(2-(2-carboxyethoxy)ethoxy)ethyl)-4-((3-(1-(3,5-dichlorophenyl)-3-(3,3-dimethylmorpholine-4-carbonyl)-7-methoxy-1,4-dihydrochromeno[4,3-c]pyrazol-8-yl)phenyl)amino)-4-oxobutanamido)piperidin-1-yl)-2-oxoethyl)-1,4,7,10-tetraazacyclododecane-1,4,7-triyl)triacetic acid], the EC50 is < 10 nM.

For the compound `COc1cc2c(cc1-c1cccc(NC(=O)CCOCCOCCOCCOCCOCCOCCNC(=O)CN3CCN(CC(=O)O)CCN(CC(=O)O)CCN(CC(=O)O)CC3)c1)-c1c(c(C(=O)N3CCOCC3(C)C)nn1-c1cc(Cl)cc(Cl)c1)CO2` [Compound 16, 2,2′,2″-(10-(24-((3-(1-(3,5-dichlorophenyl)-3-(3,3-dimethylmorpholine-4-carbonyl)-7-methoxy-1,4-dihydrochromeno[4,3-c]pyrazol-8-yl)phenyl)amino)-2,24-dioxo-6,9,12,15,18,21-hexaoxa-3-azatetracosyl)-1,4,7,10-tetraazacyclododecane-1,4,7-triyl)triacetic acid], the 50% effective concentration (EC50) lay within 10 to 100 nM.

As to `COc1cc2c(cc1-c1cccc(NC(=O)CCOCCOCCOCCOCCOCCOCCNC(=O)CN3CCN(CC(=O)O)CCN(CC(=O)O)CCN(CC(=O)O)CC3)c1)-c1c(c(C(=O)N3CCOCC3(C)C)nn1-c1cc(Cl)cc(Cl)c1)CO2` [Compound 16A], the EC50 was < 10 nM.

With `COc1cc2c(cc1-c1cccc(NC(=O)CCOCCOCCOCCOCCNC(=O)CN3CCN(CC(=O)O)CCN(CC(=O)O)CCN(CC(=O)O)CC3)c1)-c1c(c(C(=O)N3CCOCC3(C)C)nn1-c1cc(Cl)cc(Cl)c1)CO2` [Compound 17, 2,2′,2″-(10-(18-((3-(1-(3,5-dichlorophenyl)-3-(3,3-dimethylmorpholine-4-carbonyl)-7-methoxy-1,4-dihydrochromeno|4,3-c|pyrazol-8-yl)phenyl)amino)-2,18-dioxo-6,9,12,15-tetraoxa-3-azaoctadecyl)-1,4,7,10-tetraazacyclododecane-1,4,7-triyl)triacetic acid], the 50% effective concentration (EC50) was < 10 nM.

Consider `COc1cc2c(cc1-c1cccc(NC(=O)CCOCCOCCOCCNC(=O)CN3CCN(CC(=O)O)CCN(CC(=O)O)CCN(CC(=O)O)CC3)c1)-c1c(c(C(=O)N3CCOCC3(C)C)nn1-c1cc(Cl)cc(Cl)c1)CO2` [Compound 18, 2,2′,2″-(10-(15-((3-(1-(3,5-dichlorophenyl)-3-(3,3-dimethylmorpholine-4-carbonyl)-7-methoxy-1,4-dihydrochromeno|4,3-c|pyrazol-8-yl)phenyl)amino)-2,15-dioxo-6,9,12-trioxa-3-azapentadecyl)-1,4,7,10-tetraazacyclododecane-1,4,7-triyl)triacetic acid], for which the concentration for a half-maximal effect (EC50) was 10 to 100 nM.

Turning to `COc1cc2c(cc1-c1cccc(NC(=O)CCOCCOCCOCCNC(=O)CN3CCN(CC(=O)O)CCN(CC(=O)O)CCN(CC(=O)O)CC3)c1)-c1c(c(C(=O)N3CCOCC3(C)C)nn1-c1cc(Cl)cc(Cl)c1)CO2` [Compound 18A], the EC50 is < 10 nM.

Regarding `COc1cc2c(cc1-c1cccc(NC(=O)CCOCCOCCNC(=O)CN3CCN(CC(=O)O)CCN(CC(=O)O)CCN(CC(=O)O)CC3)c1)-c1c(c(C(=O)N3CCOCC3(C)C)nn1-c1cc(Cl)cc(Cl)c1)CO2` [Compound 19, 2,2′,2″-(10-(2-((2-(2-(3-((3-(1-(3,5-dichlorophenyl)-3-(3,3-dimethylmorpholine-4-carbonyl)-7-methoxy-1,4-dihydrochromeno[4,3-c]pyrazol-8-yl)phenyl)amino)-3-oxopropoxy)ethoxy)ethyl)amino)-2-oxoethyl)-1,4,7,10-tetraazacyclododecane-1,4,7-triyl)triacetic acid], the EC50 was < 10 nM.

Staying with this experiment, now noted: hFSHR Agonist cAMP EC50, CHO-K1 human FSHR cells, 30 minutes at 37° C., HTRF cAMP kit.
On to `COc1cc2c(cc1-c1cccc(NC(=O)CCC(=O)NC3CCN(C(=O)CN4CCN(CC(=O)O)CCN(CC(=O)O)CCN(CC(=O)O)CC4)CC3)c1)-c1c(c(C(=O)N3CCOCC3(C)C)nn1-c1cc(Cl)cc(Cl)c1)CO2` [Compound 11], for which the concentration giving a half-maximal response (EC50) was < 10 nM.

As for `COc1cc2c(cc1-c1cccc(NC(=O)CCOCCOCCOCCOCCNC(=O)CN3CCN(CC(=O)O)CCN(CC(=O)O)CCN(CC(=O)O)CC3)c1)-c1c(c(C(=O)N3CCOCC3(C)C)nn1-c1cc(Cl)cc(Cl)c1)CO2` [Compound 17B], the 50% effective concentration (EC50) is < 10 nM.
